From patent US7884136B2, “Modified-release formulations of a bupropion salt” (Biovail Laboratories International S.R.L., priority 2005, dated 2011)

Assays:
[1] = Moisture content of bupropion salts by KF; assay type: physicochemical
Experimental: The eight salts were first evaluated by HPLC, KF, pH and DSC for purity, water content, aqueous pH and possible polymorphs.
The salts were analysed by DSC (at 10° C./min from 30° C. up to 400° C.) and the pH (aq. 0.5%), and the moisture content by KF were also measured. The TGA was performed on the HCl, maleate, tosylate and HBr salts.

[2] = Solubility of Bupropion HBr vs Bupropion HCl in water, EtOH, IPA; assay type: physicochemical
[3] = Dynamic Vapour Sorption (DVS) hygroscopicity of bupropion HBr; assay type: physicochemical; conditions: for DVS: water uptake / hygroscopicity (words): range 0% RH-90% RH, hydrobromide
[4] = Forced degradation stability study of bupropion salts spiked with placebo/excipients, closed vials, 40° C./75% RH, HPLC assay and impurities
Experimental: The stability of the salts was evaluated based on the formation of the main degradation products (see below) as determined by HPLC analysis and the % potency (or assay) of the API, after specific time periods in the stability chamber. The effect of the addition of solvents, such as water, ethanol and isopropyl alcohol, was also studied.
The samples of each salt and the spiked salts with the bupropion HCl XL were prepared under the conditions mentioned in Table 4. […] The stability of the bupropion salts were evaluated based on the formation of the main degradation product 3-chlorobenzoic acid (3-CBZ) and the intermediate degradation products diketone 827U76 and the ketohydroxyl derivatives (20U78 and 852U77) (Scheme 2).
As mentioned above, the stability samples were prepared in 2 mL vials and used directly for assay and impurity analysis by HPLC without further sample preparations to minimize errors.

[5] = Comparative forced degradation of bupropion HCl and HBr API salts, closed glass bottle, 40° C./75% RH, HPLC; assay type: physicochemical; conditions: for % Assay / % Impurities 3-CBZ / % Impurities 20U78/dilu / % Impurities 827U76 / % Impurities 852U77 / % Impurities Total unknown / Total (%) impurities: closed glass bottle
Experimental: Further stability tests were performed by directly comparing bupropion HBr and bupropion HCl salts in forced degradation studies. […] At specified times, the material in the bottles was analyzed for the presence of degradation products and % potency (% assay).
The samples were exposed to the above conditions in a closed bottle for few days, and then subjected to HPLC analysis. The amount of the main degradation products present after treatment were compared with those amounts that were present initially.
The samples were analysed after 14 and 24 days (study-1) and 10 days (study II), in a quantitative manner by direct treatment of the whole content of the bottle as per the HPLC standard test method (P05.901.10).

[6] = Release of bupropion base from bupropion HCl and HBr; assay type: physicochemical
Experimental: It was previously observed that when 150 mg of bupropion HCl was tested for its release of bupropion, the base value that was released was 130 mg.

[7] = Forced degradation of bupropion HBr and HCl in the presence of excipients at 55° C., 55° C./100% RH, 100° C. and 105° C.; assay type: physicochemical; conditions: 24 and 48 hours at 55° C., 105 degrees C., hydrobromide
Experimental: Forced degradation studies were also performed on bupropion HBr and bupropion HCl API's in the presence of standard excipients used in pharmaceutical formulations.
Further forced degradation studies were carried out at 55° C., at 55° C. and 100% relative humidity, at 100° C., and at 105° C. on both the HCl and HBr Bupropion salts in the presence of excipients. The average weight of the excipients and the weight of the active pharmaceutical ingredient (API) present in the samples are presented in Table 72. […] FIG. 53 is a graph showing the loss of each salt over time in a TGA experiment at 100° C.

[8] = TGA experiment at 100° C., loss of API salt over time; assay type: physicochemical; conditions: TGA at 100° C.
Experimental: The average weight of the excipients and the weight of the active pharmaceutical ingredient (API) present in the samples are presented in Table 72. […] FIG. 53 is a graph showing the loss of each salt over time in a TGA experiment at 100° C.

[9] = In IPA/EtOH, 32 days, closed vials
[10] = In water, 32 days, closed vials
[11] = salt plus excipients, 20 days, closed vial, 40° C./75% RH
[12] = repeat study, 40 C/75% RH, 10 Days, Lot# STN07491, hydrobromide
[13] = repeat study, 40 C/75% RH, 10 Days, Lot# STN07492, hydrobromide
[14] = repeat study, 40 C/75% RH, Initial, Lot# STN07491, hydrobromide
[15] = repeat study, 40 C/75% RH, Initial, Lot# STN07492, hydrobromide

## Br.CC(NC(C)(C)C)C(=O)c1cccc(Cl)c1 (centres unmarked) [Bupropion HBr, bupropion hydrobromide]
[1]; Table 3, supplier API
  Moisture Content (KF): 0.00%
[1]; original API salts
  KF (moisture content), Original (Initial APIs): 0.00%
[2]; EtOH
  Solubility, EtOH: 92 mg/mL
[2]; IPA
  Solubility, IPA: 12 mg/mL
[2]; water
  Solubility, Water: 143 mg/mL
[3]; at 90% RH
  DVS: maximum water uptake: 0.14 % weight
[3]; listed as HBr
  DVS: water uptake / hygroscopicity (words): non-hygroscopic
[3]; listed as bupropion HBr
  DVS: water uptake / hygroscopicity (words): no significant water uptake
[4]; DS and excipients spiked with IPA & EtOH, 32 days, closed vials, 40° C.
  Order of stability (assay) with IPA & EtOH: HCl>HBr>tosylate>maleate>fumarate
[4]; DS and excipients spiked with water, 32 days, closed vials, 40° C.
  Order of stability (assay) with water: tosylate>maleate>HCl>HBr>fumarate
[4]; DS and spiked DS, 40° C./75% RH
  Stability in the forced degradation stability studies, overall: superior stability in a closed container
[4]; [9]
  Content of impurity 3-CBZ, order of salts: maleate > HBr > HCl > Fumarate
  Content of impurity 852U77, order of salts: fumarate > HBr ≈ HCl ≈ maleate ≈ tosylate
  Total imp., order of salts: fumarate > maleate > HBr > HCl > tosylate
[4]; [10]
  Content of impurity 3-CBZ, order of salts: HCl > HBr ≈ maleate ≈ fumarate
  Content of impurity 852U77, order of salts: fumarate > HBr > maleate > HCl
  Total imp., order of salts: fumarate > HBr > HCl > tosylate > maleate
[4]; open and closed vials, 40 degrees C./75% RH, 'after at least 3 months or after at least 6 months'
  Degradation products and retained activity compared with all salts tested: least amount of degradation products
[4]; [11]
  Impurities (3-CBZ, 852U77 & total) compared to the other salts: lowest
  Order of stability (assay, % potency): HBr>HCl=tosylate>fumarate>maleate
[5]; closed bottles, 40 degrees C. and 75% relative humidity
  Impurities and % potency compared to the HCl salt: amount of impurities was consistently lower and the % potency was consistently higher
[5]; 40° C./75% RH, 14-Days
  % Assay: 98.8%
  % Impurities 3-CBZ: 0.015%
  % Impurities 20U78/dilu: 0.048%
  % Impurities 827U76: 0.012%
  % Impurities 852U77: 0.058%
  % Impurities Total unknown: 0.105%
  Total (%) impurities: 0.23%
[5]; 40° C./75% RH, 24 Days
  % Assay: 99.5%
  % Impurities 3-CBZ: 0.022%
  % Impurities 20U78/dilu: 0.038%
  % Impurities 827U76: 0.016%
  % Impurities 852U77: 0.052%
  % Impurities Total unknown: 0.104%
  Total (%) impurities: 0.23%
[5]; 40° C./75% RH, Initial
  % Assay: 99.6%
  % Impurities 3-CBZ: 0.007%
  % Impurities 20U78/dilu: 0.044%
  % Impurities 852U77: 0.009%
  % Impurities Total unknown: 0.098%
  Total (%) impurities: 0.16%
[5]; repeat study, 40 C/75% RH, 10 Days
  % Impurities 827U76: 0.039%
[5]; [12]
  % Assay: 98.2%
  % Impurities 3-CBZ: 0.070%
  % Impurities 20U78/dilu: 0.051%
  % Impurities 852U77: 0.125%
  % Impurities Total unknown: 0.129%
  Total (%) impurities: 0.42%
[5]; [13]
  % Assay: 99.2%
  % Impurities 3-CBZ: 0.031%
  % Impurities 20U78/dilu: 0.044%
  % Impurities 852U77: 0.055%
  % Impurities Total unknown: 0.15%
  Total (%) impurities: 0.24%
[5]; repeat study, 40 C/75% RH, Initial
  % Impurities 20U78/dilu: 0.041%
[5]; [14]
  % Assay: 99.5%
  % Impurities 3-CBZ: 0.011%
  % Impurities Total unknown: 0.129%
  Total (%) impurities: 0.17%
[5]; [15]
  % Assay: 99.6%
  % Impurities 3-CBZ: 0.007%
  % Impurities Total unknown: 0.194%
  Total (%) impurities: 0.23%
[6]; 150 mg of the salt tested
  Base value of bupropion released: 112 mg
[6]; 174 mg of the salt tested
  Base value of bupropion released: 130 mg
[7]; listed as HBr
  Degradation in the presence of excipients (formation of impurities, words): lowest amount of degradation
[7]; listed as bupropion HBr
  Degradation in the presence of excipients (formation of impurities, words): significant improvements in stability compared to bupropion HCl
[8]
  Disproportionation of the salt at elevated temperature: did not occur
